{"source": "patent US9925222B2", "about": "“Gut barrier dysfunction treatment and prevention” (ALBERT EINSTEIN COLLEGE OF MEDICINE OF YESHIVA UNIVERSITY, priority 2012, dated 2018)", "key": {"[1]": {"target": "T1, aryl hydrocarbon receptor (AhR) (Homo sapiens, UniProt P35869)", "T1 sequence (P35869 11-848)": "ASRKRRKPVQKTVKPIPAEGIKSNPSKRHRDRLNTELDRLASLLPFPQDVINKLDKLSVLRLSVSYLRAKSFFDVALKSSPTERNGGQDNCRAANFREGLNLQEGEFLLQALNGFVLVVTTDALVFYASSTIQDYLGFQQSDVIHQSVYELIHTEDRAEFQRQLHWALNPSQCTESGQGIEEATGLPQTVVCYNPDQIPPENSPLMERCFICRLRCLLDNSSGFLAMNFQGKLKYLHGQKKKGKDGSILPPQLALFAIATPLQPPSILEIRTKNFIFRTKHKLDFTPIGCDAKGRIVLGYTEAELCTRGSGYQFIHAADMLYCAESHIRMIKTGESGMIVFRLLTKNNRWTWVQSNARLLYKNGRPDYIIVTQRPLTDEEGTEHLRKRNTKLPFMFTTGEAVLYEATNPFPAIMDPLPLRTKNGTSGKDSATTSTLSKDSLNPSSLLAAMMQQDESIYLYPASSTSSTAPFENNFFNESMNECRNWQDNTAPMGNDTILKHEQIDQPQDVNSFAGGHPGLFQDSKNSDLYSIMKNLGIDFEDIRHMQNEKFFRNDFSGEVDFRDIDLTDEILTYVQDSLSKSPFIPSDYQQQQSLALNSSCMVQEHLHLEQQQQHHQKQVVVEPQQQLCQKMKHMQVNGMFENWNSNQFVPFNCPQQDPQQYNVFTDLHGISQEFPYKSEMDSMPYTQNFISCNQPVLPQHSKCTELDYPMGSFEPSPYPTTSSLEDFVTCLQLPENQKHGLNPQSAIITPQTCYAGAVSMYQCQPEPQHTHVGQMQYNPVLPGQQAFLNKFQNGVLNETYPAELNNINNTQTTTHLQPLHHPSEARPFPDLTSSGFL", "assay": "AhR activation"}, "Tnf-α mRNA expression": {"tested_on": "Tnf-α mRNA expression", "assay": "KDO2-lipid A gut mucosal endotoxemia model with oral IPA, Tnf-α qPCR in jejunum apical enterocytes", "type": "in vivo", "conditions": "KDO2 200 μg/mice, oral IPA 20 mg/kg", "protocol": "2.0 μg of total RNA extracted from pooled apical enterocytes with TRIzolR (Invitrogen), were reverse transcribed with random hexamer primers and SuperScript™ III-RT enzyme (Invitrogen). Quantitative PCR (qPCR) reactions using TaqMan universal PCR master mix and TaqMan probes containing FAM as the 5′ reporter fluorochrome and tetramethylrhodamine (MGB) as the 3′ quencher fluorochrome, were performed in triplicate for each sample and analyzed on the ABI Prism 7900HT system. […]\nFor indomethacin induced mouse jejunitis model, a protocol published by Ettarh and Carr was modified by using a single intraperitoneal dose of indomethacin to reduce the toxicity in Pxr^−/− mice (17). […] Weights of individual jejunum sections were measured for quantitation of enteropooling (intestinal weight/length in mg/cm). […]"}}}
{"smiles": "O=C(O)CCc1c[nH]c2ccccc12", "note": "[IPA, indole-3-propionic acid]", "values": [{"measurement": "Activation of AhR", "setting": "[1]", "value": "no activation"}, {"measurement": "Decrease of epithelial Tnf mRNA expression", "setting": "Tnf-α mRNA expression; Pxr+/+ mice", "value": 3.73, "unit": "fold"}, {"measurement": "Decrease of epithelial Tnf mRNA expression", "setting": "Tnf-α mRNA expression; Pxr−/− mice", "value": 1.72, "unit": "fold"}]}
